Literature values in patent US20160074480A1, “INNOVATIVE METHODS OF TREATMENTING TUBERCULOSIS” (priority 2015, published 2016).

Tested on: TB bacteria
Conditions: laboratory dishes, including strains resistant to available anti-tuberculosis drug; cited from earlier work

## O=C1O[C@H]([C@@H](O)CO)C(O)=C1O [Vitamin C, L-ascorbic acid]
  killing of TB bacteria: killed TB bacteria
